Measurements taken from US20240246968A1, “SMALL MOLECULE INHIBITORS OF KRAS G12C MUTANT” (Merck Sharp & Dohme LLC, priority 2021, published 2024).

Tests used:
[1] = target: T1, interaction between recombinant K-Ras4B G12C mutant protein and cRAF RAS-binding domain (cRAF-RBD) (Homo sapiens, UniProt P01116, G12C); assay: Inhibitory activity on interaction between KRAS G12C and cRAF (Alpha technology); format: biochemical; conditions: GMPPNP-bound KRAS G12C incubated with compound at 25° C. for 1 hour, then cRAF-RBD; Alpha signal
T1 construct: made in house; host or cells: E. coli
How it was run: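 GMPPNP-loaded His-tagged KRAS G12C (aa 1-169, E. coli) preincubated with compound 1 h at 25° C in Tris pH 7.5, 100 mM NaCl, 1 mM MgCl2, TCEP, 0.1% Tween 20; cRAF-RBD (aa 50-132) added, 1.5 h RT, Alpha signal read. DMSO = 0%, GDP-bound KRAS = 100% inhibition; IC50 from dose titration fit.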

[2] = target: Gppcp-bound recombinant K-Ras4B G12C mutant protein (amino acids 1-169, C51S/C80L/C118S) (Homo sapiens, UniProt P01116, C118S/C51S/C80L/G12C); assay: KRASG12C binding assay (LC-MS, compound binding rate); conditions: test compound final concentration 0.5 μM, 25° C., 1 hour
How it was run: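 Gppcp-bound K-Ras4B G12C (1-169; C51S/C80L/C118S), 50 nM in TBS with 0.1 mM TCEP, 0.25 mM MgCl2, 50 μM Gppcp, exposed to compound at 0.5 μM final for 1 h at 25 °C. Quenched with formic acid and analysed by intact-protein ESI LC-MS. Binding rate is the mono-adduct signal over total KRAS signal; graded A (≥80%) to E (<20%).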

[3] = tested on: MIA PaCa-2 cells; assay: Growth inhibition activity on KRAS-G12C mutant cell line (MIA PaCa-2), CellTiter-Glo 3D; format: cell-based, human; conditions: MIA PaCa-2, 3-day culture with compound
How it was run: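 Cells in RPMI1640 with 10% FBS were seeded in U-bottom plates and cultured 1 day at 37 °C, 5% CO2, then exposed to compound (0.2% DMSO final) for 3 more days. Viability read by CellTiter-Glo 3D luminescence; IC50 from growth inhibition relative to untreated wells.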

Compound	IC50 [1] [nM]	binding rate [2]	IC50 ([3]; Homo sapiens, MIA PaCa-2, 72 h) [nM]	IC50 [3] [nM]
CCc1cc(C(=O)c2cc(F)c(NC(=O)/C=C/CN[C@H]3CC[C@H](OC)CC3)c(F)c2)n2cccc(-c3c(C)cc4c(nc(C)n4C)c3Cl)c12 [Example 89, (E)-N-(4-(8-(4-chloro-1,2,6-trimethyl-1H-benzo[d]imidazol-5-yl)-1-ethylindolizine-3-carbonyl)-2,6-difluorophenyl)-4-(((1r,4r)-4-methoxycyclohexyl)amino)but-2-enamide]	22	A (A binding rate of 80% or more is rated “A”)	100	
COc1c(-c2cccn3c(C(=O)c4cc(F)c(NC(=O)/C=C/CN[C@H]5CC[C@H](OC)CC5)c(F)c4)ccc23)c(C(F)(F)F)cc2c1nc(C)n2C (single isomer, unassigned) [Example 60-1, (E)-N-(2,6-difluoro-4-(8-(4-methoxy-1,2-dimethyl-6-(trifluoromethyl)-1H-benzo[d]imidazol-5-yl)indolizine-3-carbonyl)phenyl)-4-(((1r,4r)-4-methoxycyclohexyl)amino)but-2-enamide]	1600	A (A binding rate of 80% or more is rated “A”)		1600
CO[C@H]1CC[C@H](NC/C=C/C(=O)Nc2c(F)cc(C(=O)c3ccc4c(-c5c(C)cc6c(nc(C)n6C)c5Cl)cccn34)cc2F)CC1 (single isomer, unassigned) [Example 19-2, (E)-N-(4-(8-(4-chloro-1,2,6-trimethyl-1H-benzo[d]imidazol-5-yl)indolizine-3-carbonyl)-2,6-difluorophenyl)-4-(((1r,4r)-4-methoxycyclohexyl)amino)but-2-enamide]	140	A (A binding rate of 80% or more is rated “A”)		160
COc1c(-c2cccn3c(C(=O)c4cc(F)c(NC(=O)/C=C/CNC5(C)CC5)c(F)c4)c(C)nc23)c(C(F)(F)F)cc2c1nc(C)n2C (single isomer, unassigned) [Example 109-1, (E)-N-(2,6-difluoro-4(8-(4-methoxy-1,2-dimethyl-6-(trifluoromethyl)-1H-benzo[d]imidazol-5-yl)-2-methylimidazo[1,2-a]pyridine-3-carbonyl)phenyl)-4-((1-methylcyclopropyl)amino)but-2-enamide]	19.2	A (A binding rate of 80% or more is rated “A”)		21.6
CO[C@H]1C[C@H](NC/C=C/C(=O)Nc2c(F)cc(C(=O)c3ccc4c(-c5cc6nc(C)n(C)c6cc5C(F)(F)F)cccn34)cc2F)C1 [Example 54, (E)-N-(4-(8-(1,2-dimethyl-6-(trifluoromethyl)-1H-benzo[d]imidazol-5-yl)indolizine-3-carbonyl)-2,6-difluorophenyl)-4-(((1r,3r)-3-methoxycyclobutyl)amino)but-2-enamide]	67	A (A binding rate of 80% or more is rated “A”)	130	
Cc1nc2cc(-c3cccn4c(C(=O)c5cc(F)c(NC(=O)/C=C/CNC(C)(C)CF)c(F)c5)ccc34)c(C(F)(F)F)cc2n1C [Example 76, (E)-N-(4-(8-(1,2-dimethyl-6-(trifluoromethyl)-1H-benzo[d]imidazol-5-yl)indolizine-3-carbonyl)-2,6-difluorophenyl)-4-((1-fluoro-2-methylpropan-2-yl)amino)but-2-enamide]	75	A (A binding rate of 80% or more is rated “A”)	300	
Cc1nc2cc(-c3cccn4c(C(=O)c5cc(F)c(NC(=O)/C=C/CNC6CCCOC6)c(F)c5)ccc34)c(C(F)(F)F)cc2n1C (stereo not drawn) [Example 78, (E)-N-(4-(8-(1,2-dimethyl-6-(trifluoromethyl)-1H-benzo[d]imidazol-5-yl)indolizine-3-carbonyl)-2,6-difluorophenyl)-4-((tetrahydro-2H-pyran-3-yl)amino)but-2-enamide]	51	A (A binding rate of 80% or more is rated “A”)	120	
CO[C@H]1CC[C@H](NC/C=C/C(=O)Nc2c(F)cc(C(=O)c3ccc4c(-c5c(C(F)(F)F)cc6c(nc(C)n6C)c5Cl)cccn34)cc2F)CC1 (single isomer, unassigned) [Example 32-2, (E)-N-(4-(8-(4-chloro-1,2-dimethyl-6-(trifluoromethyl)-1H-benzo[d]imidazol-5-yl)indolizine-3-carbonyl)-2,6-difluorophenyl)-4-(((1r,4r)-4-methoxycyclohexyl)amino)but-2-enamide]	420	A (A binding rate of 80% or more is rated “A”)		990
Cc1nc2cc(-c3cccn4c(C(=O)c5cc(F)c(NC(=O)/C=C/CN[C@H]6CC[C@H](O)CC6)c(F)c5)ccc34)c(C(F)(F)F)cc2n1C [Example 55]	41	A (A binding rate of 80% or more is rated “A”)	88	
CO[C@H]1CC[C@H](NC/C=C/C(=O)Nc2c(F)cc(C(=O)c3ccc4c(-c5cc6[nH]c(=O)n(C)c6cc5C(F)(F)F)cccn34)cc2F)CC1 [Example 110, (E)-N-(2,6-difluoro-4-(8(1-methyl-2-oxo-6-(trifluoromethyl)-2,3-dihydro-1H-benzo[d]imidazol-5-yl)indolizine-3-carbonyl)phenyl)-4-(((1r,4r)-4-methoxycyclohexyl)amino)but-2-enamide]	80.7	A (A binding rate of 80% or more is rated “A”)	182	
Cc1nc2cc(-c3cccn4c(C(=O)c5cc(F)c(NC(=O)/C=C/CNC(C)(C)C)c(F)c5)ccc34)c(C(F)(F)F)cc2n1C [Example 25, (E)-4-(tert-butylamino)-N-(4-(8-(1,2-dimethyl-6-(trifluoromethyl)-1H-benzo[d]imidazol-5-yl)indolizine-3-carbonyl)-2,6-difluorophenyl)but-2-enamide]	79	A (A binding rate of 80% or more is rated “A”)	100	
Cc1cc2c(nc(CC#N)n2C)c(Cl)c1-c1cccn2c(C(=O)c3cc(F)c(NC(=O)/C=C/CNC(C)(C)C)c(F)c3)ccc12 [Example 74, (E)-4-(tert-butylamino)-N-(4-(8-(4-chloro-2-(cyanomethyl)-1,6-dimethyl-1H-benzo[d]imidazol-5-yl)indolizine-3-carbonyl)-2,6-difluorophenyl)but-2-enamide]	64	A (A binding rate of 80% or more is rated “A”)	65	
CO[C@H]1CC[C@H](NC/C=C/C(=O)Nc2c(F)cc(C(=O)c3ccc4c(-c5c(C(C)C)cc6c(nc(C)n6C)c5Cl)cccn34)cc2F)CC1 (single isomer, unassigned) [Example 71-2, (E)-N-(4-(8-(4-chloro-6-isopropyl-1,2-dimethyl-1H-benzo[d]imidazol-5-yl)indolizine-3-carbonyl)-2,6-difluorophenyl)-4-(((1r,4r)-4-methoxycyclohexyl)amino)but-2-enamide]	220	A (A binding rate of 80% or more is rated “A”)		570
CCCc1cc(C(=O)c2cc(F)c(NC(=O)/C=C/CN[C@H]3CC[C@H](OC)CC3)c(F)c2)n2cccc(-c3c(C)cc4c(nc(C)n4C)c3Cl)c12 [Example 97, (E)-N-(4-(8-(4-chloro-1,2,6-trimethyl-1H-benzo[d]imidazol-5-yl)-1-propylindolizine-3-carbonyl)-2,6-difluorophenyl)-4-(((1r,4r)-4-methoxycyclohexyl)amino)but-2-enamide]	44	A (A binding rate of 80% or more is rated “A”)	320	
CO[C@H](C)c1nc2c(Cl)c(-c3cccn4c(C(=O)c5cc(F)c(NC(=O)/C=C/CNC(C)(C)C)c(F)c5)ccc34)c(C)cc2n1C (single isomer, unassigned) [Example 50]	250	A (A binding rate of 80% or more is rated “A”)		220
COc1c(-c2cccn3c(C(=O)c4cc(F)c(NC(=O)/C=C/CNC5(C)CC5)c(F)c4)cnc23)c(C(F)(F)F)cc2c1nc(C)n2C (single isomer, unassigned) [Example 105-2, (E)-N-(2,6-difluoro-4-(8-(4-methoxy-1,2-dimethyl-6-(trifluoromethyl)-1H-benzo[d]imidazol-5-yl)imidazo[1,2-a]pyridine-3-carbonyl)phenyl)-4-((1-methylcyclopropyl)amino)but-2-enamide]	1450	C (a binding rate of 40% or more and less than 60% is rated “C”)		943
COc1c(-c2cccn3c(C(=O)c4cc(F)c(NC(=O)/C=C/CN[C@H]5CC[C@H](OC)CC5)c(F)c4)ccc23)c(C(F)(F)F)cc2c1nc(C)n2C (single isomer, unassigned) [Example 60-2, (E)-N-(2,6-difluoro-4-(8-(4-methoxy-1,2-dimethyl-6-(trifluoromethyl)-1H-benzo[d]imidazol-5-yl)indolizine-3-carbonyl)phenyl)-4-(((1r,4r)-4-methoxycyclohexyl)amino)but-2-enamide]	26	A (A binding rate of 80% or more is rated “A”)		15
